Source: patent US20110195153A1, “Nutritional Formulation Comprising A Cows Milk Peptide Containing Hydrolysate And Or Peptides Derived Thereof For Tolerance Induction” (MEAD JOHNSON NUTRITION COMPANY, priority 2009, published 2011)
Where “and” joins values, the source holds several entries; their conditions need not be identical. Equal values may be shown once.

Test system: T-cells
Test: Tolerance induction experiment: T-cell fraction preincubated, combined with APCs and re-stimulated
Format: cell-based, human
Conditions: for proliferation of T-cells when re-stimulated with cow's milk protein after preincubation with the substance: re-stimulated with whey protein concentrate VTP14 or rαS1-casein, in words; for mean cpm / cpm / SI: individual KF1; for cpm: individual experiments
Experimental: For the tolerance induction experiment, PBMCs from healthy donors were isolated by Ficoll-density gradient, and the cells were further separated into two fractions. T-cells were enriched with a human Pan-T-cell isolation Kit (Miltenyi, Bergisch Gladbach, Germany), whereas antigen-presenting cells were enriched with human CD3 MicroBeads (Miltenyi, Bergisch Gladbach, Germany) by magnetic cell sorting.
The cell fractions containing the T-cells were incubated overnight with different peptides or medium alone at 37° C. with 5% CO2 and 95% humidity, the antigen-presenting-cell fractions were kept overnight at the same conditions without any antigens. On the next day, the T-cell fractions were washed with DPBS (GIBCO) three times and the T-cell and antigen-presenting-cell fractions were combined. The cells (2×10^5 cells per well) were cultured in triplicates in 96-well plates as described above. […] The analysis was done as described for the lymphoproliferative assays.
T-cell fractions were preincubated over night with high amounts of Nutramigen™ base (VTP11), extensive casein hydrolysate (VTP15), whole cow's milk whey protein (VTP14), Nutramigen™ (VTP3), synthetic peptides ([…], Phl p 5-Pep 1) or buffer (UCO). On the next day the T-cells and the APCs were combined and stimulated with milk samples (VTP14, VTP1). T cell stimulation is given either in counts per minute (cpm) or as stimulation index (SI).

[1] = T-cells tolerized with the substance, stimulated with UCO
[2] = tolerized with the substance, stimulated with IL-2
[3] = tolerized with the substance, stimulated with VTP1, first line
[4] = tolerized with the substance, stimulated with VTP1, second line
[5] = tolerized with the substance, stimulated with VTP14, first line
[6] = tolerized with the substance, stimulated with VTP14, second line

| Sequence | proliferation of T-cells when re-stimulated with cow's milk protein after preincubation with the substance | mean cpm [1] | SI [2] | mean cpm [2] | SI [3] | mean cpm [3] | SI [4] | mean cpm [4] | SI [5] | mean cpm [5] | SI [6] | mean cpm [6] | further results |
| --- | --- | --- | --- | --- | --- | --- | --- | --- | --- | --- | --- | --- | --- |
| ISSSEEIVPNSVEQKHIQKEDVPSERYLGYEQLLRC (listed as Bos taurus) [Cas3] | suppress the proliferation of T-cells |  |  |  |  |  |  |  |  |  |  |  | proliferation of T-cells when re-stimulated with cow's milk protein after preincubation with the substance (listed as alphaS1-casein-derived peptide 3): suppressed the proliferation |
| CLKKYKVPQLEIVPNSAEERLHSMKEGIHAQQKE (listed as Bos taurus) [Cas4] | suppress the proliferation of T-cells | 16151 cpm | 0.9 | 14533 cpm | 0.4 | 6304 cpm | 0.4 | 6621 cpm | 1.3 | 20794 cpm | 0.2 | 3747 cpm | cpm (T-cells tolerized with the substance, stimulated with UCO, listed as αS2-PEP 4): 17694 cpm and 14608 cpm; cpm (tolerized with the substance, stimulated with IL-2, listed as αS2-PEP 4): 12704 cpm and 19463 cpm and 11433 cpm; cpm (tolerized with the substance, stimulated with VTP1, first line, listed as αS2-PEP 4): 6381 cpm and 6304 cpm and 6226 cpm; cpm (tolerized with the substance, stimulated with VTP1, second line, listed as αS2-PEP 4): 8231 cpm and 8478 cpm and 3154 cpm; cpm (tolerized with the substance, stimulated with VTP14, first line, listed as αS2-PEP 4): 16162 cpm and 25246 cpm; cpm (tolerized with the substance, stimulated with VTP14, second line, listed as αS2-PEP 4): 2790 cpm and 4703 cpm |
| CGAASNKAFAEGLSGEPKGAAESSSKAALTSK (Phleum pratense) [Phl P5-peptide 1, control peptide, grass pollen allergen] |  | 12522 cpm | 1.2 | 14724 cpm | 0.3 | 4295 cpm | 0.5 | 6355 cpm | 3.4 | 41970 cpm | 0.2 | 2336 cpm | cpm (T-cells tolerized with the substance, stimulated with UCO, listed as Ph1 p 5-Pep 1): 11263 cpm and 13457 cpm and 12846 cpm; cpm (tolerized with the substance, stimulated with IL-2, listed as Ph1 p 5-Pep 1): 14153 cpm and 17806 cpm and 12214 cpm; cpm (tolerized with the substance, stimulated with VTP1, first line, listed as Ph1 p 5-Pep 1): 4708 cpm and 3278 cpm and 4898 cpm; cpm (tolerized with the substance, stimulated with VTP1, second line, listed as Ph1 p 5-Pep 1): 6315 cpm and 6342 cpm and 6409 cpm; cpm (tolerized with the substance, stimulated with VTP14, first line, listed as Ph1 p 5-Pep 1): 38430 cpm and 45751 cpm and 41730 cpm; cpm (tolerized with the substance, stimulated with VTP14, second line, listed as Ph1 p 5-Pep 1): 3282 cpm and 2244 cpm and 1482 cpm |
